Values belong to the molecule of their own block, whether it stands above or below them.
What was measured:
Conditions in all cases: binder
CK2a2 = CK2a2 (Homo sapiens, UniProt P19784)
AKT3 = AKT3 (Homo sapiens, UniProt Q9Y243)
Erk7 = molecular target: T1, Erk7 (Homo sapiens, UniProt Q8TD08)
T1 sequence (Q8TD08 1-544): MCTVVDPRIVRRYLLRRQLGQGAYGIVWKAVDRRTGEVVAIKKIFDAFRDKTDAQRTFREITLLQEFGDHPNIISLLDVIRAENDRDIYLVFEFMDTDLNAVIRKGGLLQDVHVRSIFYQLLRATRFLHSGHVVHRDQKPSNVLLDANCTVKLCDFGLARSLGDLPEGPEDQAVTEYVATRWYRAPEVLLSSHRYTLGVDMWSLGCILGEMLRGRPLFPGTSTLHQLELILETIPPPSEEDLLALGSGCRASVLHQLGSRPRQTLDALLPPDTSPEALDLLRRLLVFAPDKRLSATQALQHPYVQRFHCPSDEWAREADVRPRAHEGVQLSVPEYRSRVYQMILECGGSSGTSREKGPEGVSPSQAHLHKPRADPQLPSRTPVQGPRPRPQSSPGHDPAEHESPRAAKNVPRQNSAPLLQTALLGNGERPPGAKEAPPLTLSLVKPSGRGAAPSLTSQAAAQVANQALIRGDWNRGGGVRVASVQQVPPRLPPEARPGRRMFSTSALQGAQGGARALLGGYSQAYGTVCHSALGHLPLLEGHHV

DAPK3 = DAPK3 (Homo sapiens, UniProt O43293)
JNK3 = JNK3 (Homo sapiens, UniProt P53779)
NDR2 = NDR2 (Homo sapiens, UniProt Q9Y2H1)
PIM3 = PIM3 (Homo sapiens, UniProt Q86V86)
NEK1 = molecular target: T2, NEK1 (Homo sapiens, UniProt Q96PY6)
T2 sequence (Q96PY6 1-1258): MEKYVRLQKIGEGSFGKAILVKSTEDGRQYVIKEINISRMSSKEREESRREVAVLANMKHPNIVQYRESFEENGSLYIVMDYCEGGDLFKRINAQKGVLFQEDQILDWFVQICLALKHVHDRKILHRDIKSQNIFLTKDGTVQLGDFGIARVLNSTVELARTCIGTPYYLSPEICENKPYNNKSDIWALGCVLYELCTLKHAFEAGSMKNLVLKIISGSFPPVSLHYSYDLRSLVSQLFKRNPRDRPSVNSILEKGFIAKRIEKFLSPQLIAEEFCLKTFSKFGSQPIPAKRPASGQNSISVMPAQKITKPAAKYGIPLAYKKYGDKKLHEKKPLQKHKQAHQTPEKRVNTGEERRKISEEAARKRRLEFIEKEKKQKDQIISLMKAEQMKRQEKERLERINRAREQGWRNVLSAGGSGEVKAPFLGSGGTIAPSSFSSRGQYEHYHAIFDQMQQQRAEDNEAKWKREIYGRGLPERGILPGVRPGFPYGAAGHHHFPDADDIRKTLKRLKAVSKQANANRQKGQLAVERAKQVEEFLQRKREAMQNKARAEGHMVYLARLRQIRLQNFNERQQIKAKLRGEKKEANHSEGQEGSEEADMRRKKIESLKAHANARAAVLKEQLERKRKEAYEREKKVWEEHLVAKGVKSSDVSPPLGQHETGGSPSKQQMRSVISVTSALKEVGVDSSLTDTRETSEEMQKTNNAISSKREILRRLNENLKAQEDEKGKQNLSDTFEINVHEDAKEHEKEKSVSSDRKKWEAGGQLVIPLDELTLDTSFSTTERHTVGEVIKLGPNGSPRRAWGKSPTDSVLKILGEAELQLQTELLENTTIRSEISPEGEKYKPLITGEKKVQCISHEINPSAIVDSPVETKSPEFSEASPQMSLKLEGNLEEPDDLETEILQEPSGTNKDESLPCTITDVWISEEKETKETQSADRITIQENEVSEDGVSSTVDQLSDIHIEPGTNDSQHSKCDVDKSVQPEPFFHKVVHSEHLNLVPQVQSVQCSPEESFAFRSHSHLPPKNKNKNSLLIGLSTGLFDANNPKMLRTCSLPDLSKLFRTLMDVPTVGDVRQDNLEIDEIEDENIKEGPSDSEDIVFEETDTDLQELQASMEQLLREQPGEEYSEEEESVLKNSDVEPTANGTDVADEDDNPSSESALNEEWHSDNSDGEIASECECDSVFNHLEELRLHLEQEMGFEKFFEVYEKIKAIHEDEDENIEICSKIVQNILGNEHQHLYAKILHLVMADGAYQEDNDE

GPRK5 = GPRK5 (Homo sapiens, UniProt P34947)
CHK2 = CHK2 (Homo sapiens, UniProt O96017)
FGFR2 = FGFR2 (Homo sapiens, UniProt P21802)
BRAF = BRAF (Homo sapiens, UniProt P15056)
Sequence of BRAF (P15056 whole entry): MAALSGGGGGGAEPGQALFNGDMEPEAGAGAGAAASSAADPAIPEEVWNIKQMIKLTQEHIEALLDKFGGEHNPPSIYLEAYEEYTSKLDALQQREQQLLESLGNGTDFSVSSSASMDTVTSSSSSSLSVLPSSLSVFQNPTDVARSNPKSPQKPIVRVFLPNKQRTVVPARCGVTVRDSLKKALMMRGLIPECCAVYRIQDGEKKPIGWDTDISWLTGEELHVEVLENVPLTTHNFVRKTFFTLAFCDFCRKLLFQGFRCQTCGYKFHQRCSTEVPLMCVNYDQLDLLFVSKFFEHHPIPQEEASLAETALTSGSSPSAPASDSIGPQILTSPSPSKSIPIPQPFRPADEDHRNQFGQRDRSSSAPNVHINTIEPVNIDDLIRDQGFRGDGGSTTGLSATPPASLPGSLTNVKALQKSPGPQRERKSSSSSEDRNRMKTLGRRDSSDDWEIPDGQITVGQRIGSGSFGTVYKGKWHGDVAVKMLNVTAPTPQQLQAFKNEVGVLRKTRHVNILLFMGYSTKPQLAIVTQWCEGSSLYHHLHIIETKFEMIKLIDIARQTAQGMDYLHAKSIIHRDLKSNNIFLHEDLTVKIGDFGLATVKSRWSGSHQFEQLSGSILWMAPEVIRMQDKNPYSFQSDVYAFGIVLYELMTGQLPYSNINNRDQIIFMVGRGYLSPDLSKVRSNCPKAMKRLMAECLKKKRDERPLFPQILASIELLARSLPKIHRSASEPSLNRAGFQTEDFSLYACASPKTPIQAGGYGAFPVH

Sequence of CK2a2 (P19784 whole entry): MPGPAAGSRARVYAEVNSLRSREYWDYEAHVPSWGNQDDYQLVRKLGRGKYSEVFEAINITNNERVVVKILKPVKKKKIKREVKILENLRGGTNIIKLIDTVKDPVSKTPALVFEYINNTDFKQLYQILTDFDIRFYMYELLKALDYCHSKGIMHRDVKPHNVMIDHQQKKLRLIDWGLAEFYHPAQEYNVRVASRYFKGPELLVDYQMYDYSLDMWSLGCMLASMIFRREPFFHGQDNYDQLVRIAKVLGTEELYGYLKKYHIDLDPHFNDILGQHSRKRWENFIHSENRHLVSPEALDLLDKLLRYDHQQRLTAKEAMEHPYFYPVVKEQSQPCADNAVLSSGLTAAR
Sequence of NDR2 (Q9Y2H1 whole entry): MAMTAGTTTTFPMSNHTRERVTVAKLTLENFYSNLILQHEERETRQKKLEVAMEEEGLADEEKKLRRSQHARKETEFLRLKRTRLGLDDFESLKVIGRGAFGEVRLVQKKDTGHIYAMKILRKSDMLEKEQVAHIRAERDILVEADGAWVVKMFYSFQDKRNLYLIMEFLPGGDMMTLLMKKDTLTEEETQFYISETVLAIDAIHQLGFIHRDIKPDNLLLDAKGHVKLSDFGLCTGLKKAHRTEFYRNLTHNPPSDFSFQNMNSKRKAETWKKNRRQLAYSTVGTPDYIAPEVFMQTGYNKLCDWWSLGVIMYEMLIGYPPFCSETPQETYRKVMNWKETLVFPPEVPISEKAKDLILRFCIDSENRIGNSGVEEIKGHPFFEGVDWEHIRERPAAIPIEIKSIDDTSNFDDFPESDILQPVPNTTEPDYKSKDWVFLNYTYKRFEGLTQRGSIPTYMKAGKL
Sequence of AKT3 (Q9Y243 whole entry): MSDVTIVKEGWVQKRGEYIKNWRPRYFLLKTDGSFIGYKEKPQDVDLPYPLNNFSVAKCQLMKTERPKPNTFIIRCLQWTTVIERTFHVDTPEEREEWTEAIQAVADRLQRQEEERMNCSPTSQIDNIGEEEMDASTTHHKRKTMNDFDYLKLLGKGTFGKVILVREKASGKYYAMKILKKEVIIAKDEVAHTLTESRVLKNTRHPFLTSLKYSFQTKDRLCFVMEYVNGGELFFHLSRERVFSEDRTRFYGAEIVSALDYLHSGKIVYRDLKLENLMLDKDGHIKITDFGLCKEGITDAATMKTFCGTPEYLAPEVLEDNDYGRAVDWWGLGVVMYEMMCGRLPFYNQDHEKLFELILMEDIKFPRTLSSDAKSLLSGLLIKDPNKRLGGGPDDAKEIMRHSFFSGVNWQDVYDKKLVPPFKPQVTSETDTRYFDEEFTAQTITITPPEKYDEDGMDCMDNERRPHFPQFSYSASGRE
Sequence of DAPK3 (O43293 whole entry): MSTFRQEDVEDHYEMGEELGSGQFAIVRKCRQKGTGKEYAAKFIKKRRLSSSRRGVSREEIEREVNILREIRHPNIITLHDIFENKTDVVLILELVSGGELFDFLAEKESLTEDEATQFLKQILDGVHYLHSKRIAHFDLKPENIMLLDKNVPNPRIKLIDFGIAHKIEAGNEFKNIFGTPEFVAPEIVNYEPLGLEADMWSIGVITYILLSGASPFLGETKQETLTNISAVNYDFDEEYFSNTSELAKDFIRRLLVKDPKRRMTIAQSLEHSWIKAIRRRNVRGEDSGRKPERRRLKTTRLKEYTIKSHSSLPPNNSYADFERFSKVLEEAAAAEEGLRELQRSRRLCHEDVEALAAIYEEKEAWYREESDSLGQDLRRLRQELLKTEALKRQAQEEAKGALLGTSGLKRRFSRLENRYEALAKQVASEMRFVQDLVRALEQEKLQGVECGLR
Sequence of FGFR2 (P21802 whole entry): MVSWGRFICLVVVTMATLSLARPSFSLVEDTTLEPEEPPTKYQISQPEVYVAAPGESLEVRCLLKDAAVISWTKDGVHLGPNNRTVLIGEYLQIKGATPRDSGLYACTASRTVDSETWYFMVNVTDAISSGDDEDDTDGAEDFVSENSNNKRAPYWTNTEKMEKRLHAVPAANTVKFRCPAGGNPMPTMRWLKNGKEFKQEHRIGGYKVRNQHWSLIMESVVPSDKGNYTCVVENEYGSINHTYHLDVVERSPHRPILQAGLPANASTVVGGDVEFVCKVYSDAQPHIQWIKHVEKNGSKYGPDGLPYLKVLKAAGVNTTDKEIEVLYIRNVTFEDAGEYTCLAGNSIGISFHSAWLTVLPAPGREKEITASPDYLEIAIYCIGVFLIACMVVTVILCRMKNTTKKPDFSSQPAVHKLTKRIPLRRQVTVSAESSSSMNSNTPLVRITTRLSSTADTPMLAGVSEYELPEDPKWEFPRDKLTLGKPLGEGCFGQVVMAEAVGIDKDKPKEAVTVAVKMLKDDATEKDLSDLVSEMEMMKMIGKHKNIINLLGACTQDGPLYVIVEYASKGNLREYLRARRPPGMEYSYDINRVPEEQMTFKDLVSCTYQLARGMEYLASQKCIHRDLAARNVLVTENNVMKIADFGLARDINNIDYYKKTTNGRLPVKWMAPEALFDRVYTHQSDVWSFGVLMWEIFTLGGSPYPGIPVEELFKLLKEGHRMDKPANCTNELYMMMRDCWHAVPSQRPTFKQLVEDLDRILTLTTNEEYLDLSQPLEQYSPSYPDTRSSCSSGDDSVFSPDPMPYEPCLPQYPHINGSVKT
Sequence of GPRK5 (P34947 whole entry): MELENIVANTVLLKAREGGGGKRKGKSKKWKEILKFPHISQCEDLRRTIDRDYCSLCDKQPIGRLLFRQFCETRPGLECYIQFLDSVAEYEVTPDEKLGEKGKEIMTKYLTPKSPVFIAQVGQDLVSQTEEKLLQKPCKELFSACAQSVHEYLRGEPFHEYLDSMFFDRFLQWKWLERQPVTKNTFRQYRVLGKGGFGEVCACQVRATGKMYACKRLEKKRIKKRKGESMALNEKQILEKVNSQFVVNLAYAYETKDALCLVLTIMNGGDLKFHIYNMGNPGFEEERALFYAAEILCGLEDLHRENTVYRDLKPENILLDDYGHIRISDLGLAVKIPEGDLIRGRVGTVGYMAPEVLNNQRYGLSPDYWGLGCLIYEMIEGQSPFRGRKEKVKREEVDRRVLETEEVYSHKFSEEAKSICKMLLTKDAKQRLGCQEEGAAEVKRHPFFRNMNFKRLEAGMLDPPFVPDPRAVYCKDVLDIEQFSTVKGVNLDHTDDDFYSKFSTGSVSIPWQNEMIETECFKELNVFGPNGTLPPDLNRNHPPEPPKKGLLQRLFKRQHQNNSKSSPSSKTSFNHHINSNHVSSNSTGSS
Sequence of CHK2 (O96017 whole entry): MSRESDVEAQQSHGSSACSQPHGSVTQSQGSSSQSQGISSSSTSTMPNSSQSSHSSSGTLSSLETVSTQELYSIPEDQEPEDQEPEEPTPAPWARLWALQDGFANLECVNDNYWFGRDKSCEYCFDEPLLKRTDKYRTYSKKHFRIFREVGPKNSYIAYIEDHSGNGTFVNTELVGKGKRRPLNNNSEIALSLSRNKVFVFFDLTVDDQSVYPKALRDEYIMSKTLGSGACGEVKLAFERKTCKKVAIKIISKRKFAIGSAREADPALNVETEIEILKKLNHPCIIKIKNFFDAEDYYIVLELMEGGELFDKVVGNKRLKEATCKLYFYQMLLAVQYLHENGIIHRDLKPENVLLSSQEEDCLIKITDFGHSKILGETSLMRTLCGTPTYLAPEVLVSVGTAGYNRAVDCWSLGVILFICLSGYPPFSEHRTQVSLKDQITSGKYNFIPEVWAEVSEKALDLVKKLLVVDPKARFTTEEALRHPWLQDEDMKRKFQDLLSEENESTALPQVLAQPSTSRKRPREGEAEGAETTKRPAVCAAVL

ΔTm MR30 (27) (CK2a2): -6.3 °C
ΔTm MR30 (27) (AKT3): 0.9 °C
ΔTm MR30 (27) (DAPK3): 0.6 °C
ΔTm MR30 (27) (JNK3): 1.7 °C
ΔTm MR30 (27) (NDR2): 1.5 °C
ΔTm MR30 (27) (PIM3): -2.7 °C
ΔTm MR30 (27) (NEK1): -0.3 °C
ΔTm MR30 (27) (GPRK5): -1.1 °C
ΔTm MR30 (27) (CHK2): 2.5 °C
ΔTm MR30 (27) (FGFR2): 1.0 °C
ΔTm MR30 (27) (BRAF): 2.6 °C
Structure (SMILES): Cc1cccc(-c2ccc(-c3cc4cnc(NCCCN5CCCC5=O)nc4n(CCCCN)c3=O)c(Cl)c2)n1 [compound 27, MR30]
ΔTm MR30 (27) (Erk7): -0.4 °C

ΔTm 29 (CK2a2): -1.6 °C
ΔTm 29 (AKT3): 0.8 °C
ΔTm 29 (DAPK3): 0.0 °C
ΔTm 29 (JNK3): 0.8 °C
ΔTm 29 (NDR2): 4.9 °C
ΔTm 29 (PIM3): 0.0 °C
ΔTm 29 (NEK1): 0.3 °C
ΔTm 29 (GPRK5): -0.4 °C
ΔTm 29 (CHK2): 2.4 °C
ΔTm 29 (FGFR2): 1.7 °C
ΔTm 29 (BRAF): 1.5 °C
Structure (SMILES): Cc1cccc(-c2ccc(-c3cc4cnc(NCCCN5CCNCC5)nc4n(CCCCN)c3=O)c(Cl)c2)n1 [compound 29, 8-(4-Aminobutyl)-6-(2-chloro-4-(6-methylpyridin-2-yl)phenyl)-2-((3-(piperazin-1-yl)propyl)amino)pyrido[2,3-d]pyrimidin-7(8H)-one]
ΔTm 29 (Erk7): 0.1 °C

ΔTm 31 (CK2a2): -0.9 °C
ΔTm 31 (AKT3): 4.2 °C
ΔTm 31 (DAPK3): 2.0 °C
ΔTm 31 (JNK3): 4.7 °C
ΔTm 31 (NDR2): 9.9 °C
ΔTm 31 (PIM3): 4.5 °C
ΔTm 31 (NEK1): -3.3 °C
ΔTm 31 (GPRK5): -0.2 °C
ΔTm 31 (CHK2): 11.2 °C
ΔTm 31 (FGFR2): 3.9 °C
ΔTm 31 (BRAF): 5.0 °C
Structure (SMILES): Cc1cccc(-c2ccc(-c3cc4cnc(Nc5ccc(O)cc5)nc4n(CCCCN)c3=O)c(Cl)c2)n1 [compound 31, 8-(4-Aminobutyl)-6-(2-chloro-4-(6-methylpyridin-2-yl)phenyl)-2-((4-hydroxyphenyl)amino) pyrido[2,3-d]pyrimidin-7(8H)-one]
ΔTm 31 (Erk7): 1.4 °C

Continued, molecule first:

Structure (SMILES): Cc1cccc(-c2ccc(-c3cc4cnc(Nc5cc(C(F)(F)F)ccc5C)nc4n(CCCCN)c3=O)c(Cl)c2)n1 [compound 28, 8-(4-Aminobutyl)-6-(2-chloro-4-(6-methylpyridin-2-yl)phenyl)-2-((2-methyl-5-(trifluoromethyl)phenyl)amino)pyrido[2,3-d]pyrimidin-7(8H)-one]
ΔTm 28 (CK2a2): -4.2 °C
ΔTm 28 (AKT3): 0.3 °C
ΔTm 28 (Erk7): 0.5 °C
ΔTm 28 (DAPK3): 1.0 °C
ΔTm 28 (JNK3): 3.5 °C
ΔTm 28 (NDR2): 7.1 °C
ΔTm 28 (PIM3): 0.5 °C
ΔTm 28 (NEK1): 0.2 °C
ΔTm 28 (GPRK5): -0.6 °C
ΔTm 28 (CHK2): 4.6 °C
ΔTm 28 (FGFR2): 3.8 °C
ΔTm 28 (BRAF): 3.2 °C

Structure (SMILES): Cc1cccc(-c2ccc(-c3cc4cnc(Nc5ccc(CCCO)cc5)nc4n(CCCCN)c3=O)c(Cl)c2)n1 [compound 30, 8-(4-Aminobutyl)-6-(2-chloro-4-(6-methylpyridin-2-yl)phenyl)-2-((4-(3-hydroxypropyl)phenyl)amino)pyrido[2,3-d]pyrimidin-7(8H)-one]
ΔTm 30 (CK2a2): -1.8 °C
ΔTm 30 (AKT3): 4.3 °C
ΔTm 30 (Erk7): 1.2 °C
ΔTm 30 (DAPK3): 2.9 °C
ΔTm 30 (JNK3): 4.6 °C
ΔTm 30 (NDR2): 10.7 °C
ΔTm 30 (PIM3): -0.8 °C
ΔTm 30 (NEK1): -3.1 °C
ΔTm 30 (GPRK5): -0.9 °C
ΔTm 30 (CHK2): 10.4 °C
ΔTm 30 (FGFR2): 3.9 °C
ΔTm 30 (BRAF): 6.2 °C

Structure (SMILES): Cc1cccc(-c2ccc(-c3cc4cnc(Nc5ccc(C)c(O)c5)nc4n(CCCCN)c3=O)c(Cl)c2)n1 [compound 32, 8-(4-Aminobutyl)-6-(2-chloro-4-(6-methylpyridin-2-yl)phenyl)-2-((3-hydroxy-4-methylphenyl)amino)pyrido[2,3-d]pyrimidin-7(8H)-one]
ΔTm 32 (CK2a2): -1.6 °C
ΔTm 32 (AKT3): 3.6 °C
ΔTm 32 (Erk7): 1.0 °C
ΔTm 32 (DAPK3): 2.6 °C
ΔTm 32 (JNK3): 4.5 °C
ΔTm 32 (NDR2): 10.1 °C
ΔTm 32 (PIM3): 1.5 °C
ΔTm 32 (NEK1): -3.0 °C
ΔTm 32 (GPRK5): -0.4 °C
ΔTm 32 (CHK2): 11.0 °C
ΔTm 32 (FGFR2): 4.2 °C
ΔTm 32 (BRAF): 5.7 °C

Reference: paper doi:10.1101/2023.11.24.568596v1 (biorxiv, 2023)
